Biological target: T1, Pleckstrin Homology Domain‐Interacting Protein, second bromodomain (PHIP(2)) (Homo sapiens, UniProt Q8WWQ0)
T1 construct: second bromodomain (PHIP(2))
Test: grating-coupled interferometry (waveRAPID) Kd; crystal structure; AlphaScreen IC50
Format: binding

Question: Which Kd does the source give for O=C(Nc1nc2ccccc2o1)N1CCN(C(=O)c2ccco2)CC1 [PHIP-AM1-20, PHIP‐AM1‐20] here?
Answer: The Kd was 50 µM.

From PMC12001203, “Binding‐Site Purification of Actives (B‐SPA) Enables Efficient Large‐Scale Progression of Fragment Hits by Combining Multi‐Step Array Synthesis With HT Crystallography” (Angewandte Chemie (International Ed. in English), 2025)
